Laboratory results reported in ChEMBL document CHEMBL1201862, “PubChem BioAssay data set” (2004).
Calls of active or inactive are those of the source.

Columns and labels:
[1] = target: T1, Mannose-6-phosphate isomerase (Homo sapiens, UniProt P34949); assay: phosphomannose isomerase inhibition – biochemical, fluorescence intensity, confirmation (AID 1535)
T1 sequence (P34949 whole entry): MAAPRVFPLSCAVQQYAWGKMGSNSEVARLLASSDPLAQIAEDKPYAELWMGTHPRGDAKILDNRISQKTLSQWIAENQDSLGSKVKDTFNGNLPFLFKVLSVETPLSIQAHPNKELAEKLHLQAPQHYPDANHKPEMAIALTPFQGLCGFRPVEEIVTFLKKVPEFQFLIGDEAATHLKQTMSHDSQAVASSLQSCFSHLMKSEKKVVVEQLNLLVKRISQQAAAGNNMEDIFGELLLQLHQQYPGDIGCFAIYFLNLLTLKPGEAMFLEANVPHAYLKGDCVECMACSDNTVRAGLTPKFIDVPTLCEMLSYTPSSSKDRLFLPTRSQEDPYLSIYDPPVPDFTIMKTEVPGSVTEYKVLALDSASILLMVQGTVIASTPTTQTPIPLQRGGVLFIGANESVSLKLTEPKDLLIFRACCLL

[2] = target: Phosphomannomutase 2 (Homo sapiens, UniProt O15305); assay: Counter screen SAR assay for PMM2 inhibitors via a fluorescence intensity assay. [Related pubchem assays (depositor defined):AID1545, AID1574]
Phosphomannomutase 2, sequence (O15305 whole entry): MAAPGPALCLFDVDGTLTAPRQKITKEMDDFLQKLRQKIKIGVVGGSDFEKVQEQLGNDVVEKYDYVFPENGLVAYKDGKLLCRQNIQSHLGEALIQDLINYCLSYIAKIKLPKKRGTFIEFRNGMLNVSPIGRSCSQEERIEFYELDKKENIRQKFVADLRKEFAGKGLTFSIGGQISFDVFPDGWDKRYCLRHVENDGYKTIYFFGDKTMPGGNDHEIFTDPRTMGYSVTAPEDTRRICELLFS

[3] = target: Phosphoethanolamine/phosphocholine phosphatase (Homo sapiens, UniProt Q8TCT1); assay: SAR assay for compounds that inhibit PHOSPHO1. [Related pubchem assays (depositor defined):AID1545, AID1565, AID1574]
Phosphoethanolamine/phosphocholine phosphatase, sequence (Q8TCT1 whole entry): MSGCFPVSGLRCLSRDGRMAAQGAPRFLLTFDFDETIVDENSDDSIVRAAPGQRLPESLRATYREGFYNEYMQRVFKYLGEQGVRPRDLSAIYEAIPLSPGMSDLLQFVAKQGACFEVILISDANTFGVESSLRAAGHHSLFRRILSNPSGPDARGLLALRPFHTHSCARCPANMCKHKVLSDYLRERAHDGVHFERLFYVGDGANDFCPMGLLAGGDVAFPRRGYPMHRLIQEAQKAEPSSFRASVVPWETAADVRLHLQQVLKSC

[4] = target: Voltage-dependent T-type calcium channel subunit alpha-1H (Homo sapiens, UniProt O95180); assay: inhibition of CACNA1H calcium flux – cell-based, SynthLib3 library, HEK293 Cav3.2, fluorescence (AID 493041); assay type: functional
[5] = target: T2, CAAX prenyl protease 2 (Saccharomyces cerevisiae S288c, UniProt Q03530); assay type: biochemical
T2 sequence (Q03530 whole entry): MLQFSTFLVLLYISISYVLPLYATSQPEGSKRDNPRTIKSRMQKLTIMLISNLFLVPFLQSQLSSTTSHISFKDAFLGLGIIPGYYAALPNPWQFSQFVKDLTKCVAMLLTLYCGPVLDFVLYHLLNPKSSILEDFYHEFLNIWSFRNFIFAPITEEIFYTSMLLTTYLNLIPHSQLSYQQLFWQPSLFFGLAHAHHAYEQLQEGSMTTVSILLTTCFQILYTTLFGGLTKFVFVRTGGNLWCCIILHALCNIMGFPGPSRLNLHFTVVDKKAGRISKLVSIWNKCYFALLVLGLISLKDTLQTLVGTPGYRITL

[6] = target: T3, Protein RecA (Mycobacterium tuberculosis, UniProt P9WHJ3); assay: Fluorescence Cell-Free Homogeneous Dose Retest to Identify Inhibitors of RecA-Intein Splicing Activity. [Related pubchem assays (depositor defined):AID2097, AID2223, AID489010, AID492950]; assay type: functional
T3 sequence (P9WHJ3 whole entry): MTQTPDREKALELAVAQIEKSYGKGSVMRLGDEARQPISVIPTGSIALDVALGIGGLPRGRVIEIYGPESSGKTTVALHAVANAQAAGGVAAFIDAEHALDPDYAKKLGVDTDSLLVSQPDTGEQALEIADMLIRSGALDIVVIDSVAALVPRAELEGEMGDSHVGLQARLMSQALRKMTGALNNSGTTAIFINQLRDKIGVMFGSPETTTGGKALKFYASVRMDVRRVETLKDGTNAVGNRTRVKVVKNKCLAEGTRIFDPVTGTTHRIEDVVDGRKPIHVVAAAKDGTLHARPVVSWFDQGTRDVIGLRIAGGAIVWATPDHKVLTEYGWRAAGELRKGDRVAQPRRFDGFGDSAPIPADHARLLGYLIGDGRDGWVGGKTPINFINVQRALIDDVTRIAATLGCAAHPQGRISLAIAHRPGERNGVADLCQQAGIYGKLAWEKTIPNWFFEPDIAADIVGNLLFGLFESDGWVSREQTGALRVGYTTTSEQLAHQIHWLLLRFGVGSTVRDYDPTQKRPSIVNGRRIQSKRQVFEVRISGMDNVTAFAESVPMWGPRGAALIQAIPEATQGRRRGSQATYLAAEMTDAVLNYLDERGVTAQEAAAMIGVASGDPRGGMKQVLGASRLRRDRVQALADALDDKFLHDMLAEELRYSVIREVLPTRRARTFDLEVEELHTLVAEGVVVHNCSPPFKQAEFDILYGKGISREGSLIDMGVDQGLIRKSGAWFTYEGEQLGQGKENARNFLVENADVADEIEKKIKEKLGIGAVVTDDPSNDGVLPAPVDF

[7] = target: G-protein coupled receptor 55 (Homo sapiens, UniProt Q9Y2T6); assay: inhibition of LPI-stimulated GPR55 beta-arrestin translocation – imaging, U2OS, beta-arrestin-GFP, LPI agonist, primary screen (AID 2013); assay type: functional;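 further: antagonist potency measured as reduced agonist-driven arrestin aggregation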
G-protein coupled receptor 55, sequence (Q9Y2T6 whole entry): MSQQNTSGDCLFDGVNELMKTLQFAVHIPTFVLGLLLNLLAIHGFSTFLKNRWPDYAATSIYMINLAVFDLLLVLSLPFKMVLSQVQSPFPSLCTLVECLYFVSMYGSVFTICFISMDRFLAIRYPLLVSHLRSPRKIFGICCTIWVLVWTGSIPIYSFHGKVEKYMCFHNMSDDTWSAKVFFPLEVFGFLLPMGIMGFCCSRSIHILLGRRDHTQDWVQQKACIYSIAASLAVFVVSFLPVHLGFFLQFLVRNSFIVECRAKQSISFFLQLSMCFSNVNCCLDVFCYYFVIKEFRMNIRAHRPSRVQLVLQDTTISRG

[8] = target: G-protein coupled receptor 35 (Homo sapiens, UniProt Q9HC97); assay: inhibition of zaprinast-stimulated GPR35 beta-arrestin translocation – imaging, U2OS, beta-arrestin-GFP, zaprinast agonist, primary screen (AID 2058); assay type: functional;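 further: antagonist potency meaning inhibition of agonist-induced arrestin redistribution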
G-protein coupled receptor 35, sequence (Q9HC97 whole entry): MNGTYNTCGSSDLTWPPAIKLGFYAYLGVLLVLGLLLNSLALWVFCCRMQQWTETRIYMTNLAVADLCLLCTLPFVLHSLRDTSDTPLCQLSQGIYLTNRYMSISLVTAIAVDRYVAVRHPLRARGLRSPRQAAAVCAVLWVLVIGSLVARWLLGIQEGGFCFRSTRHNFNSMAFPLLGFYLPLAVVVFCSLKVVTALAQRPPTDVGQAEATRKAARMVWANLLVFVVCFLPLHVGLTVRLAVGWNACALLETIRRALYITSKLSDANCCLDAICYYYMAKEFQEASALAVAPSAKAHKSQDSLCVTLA

[9] = viability of PTEN-deleted HCT116 cells – cell-based, HCT116 PTEN knockout, dose response (AID 1047); assay type: functional;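 further: HCT116 colon tumor cells with PTEN knocked out; cells exposed to compound for 60 hours before readout; potency for loss of cell viability measured by luminescence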
[10] = toxicity toward cultured mammalian cells – cell-based, plate reader, cherry-pick samples, cytotoxicity control, dose response (AID 504397); assay type: functional
[11] = viability of HCT116 lacking mutant beta-catenin – cell-based, human colon tumor, dose response (AID 1045); assay type: functional;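 further: HCT116 colon tumor cells with beta catenin knocked out; cells exposed to compound for 60 hours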
[12] = target: T4, CAAX prenyl protease 2 (Homo sapiens, UniProt Q9Y256); assay: inhibition of Ras-converting CAAX protease Rce1 – biochemical, yeast membranes, quenched-peptide fluorescence, cherry-pick, dose response (AID 588849)
T4 sequence (Q9Y256 whole entry): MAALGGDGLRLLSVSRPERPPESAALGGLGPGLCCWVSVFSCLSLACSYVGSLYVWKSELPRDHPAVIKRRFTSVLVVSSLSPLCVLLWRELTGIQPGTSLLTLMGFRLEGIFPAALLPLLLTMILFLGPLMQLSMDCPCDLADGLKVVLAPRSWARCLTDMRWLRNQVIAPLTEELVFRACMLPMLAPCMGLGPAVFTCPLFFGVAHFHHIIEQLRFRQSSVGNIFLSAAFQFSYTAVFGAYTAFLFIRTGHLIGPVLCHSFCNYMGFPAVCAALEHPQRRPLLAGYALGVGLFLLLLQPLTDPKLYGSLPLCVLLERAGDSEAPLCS

[13] = target: T5, Replicative DNA helicase DnaB (Mycobacterium tuberculosis, UniProt P9WMR3); assay: DnaB intein splicing inhibitors, dose response, biochemical, cell-free fluorescence (AID 449749); assay type: functional
T5 sequence (P9WMR3 whole entry): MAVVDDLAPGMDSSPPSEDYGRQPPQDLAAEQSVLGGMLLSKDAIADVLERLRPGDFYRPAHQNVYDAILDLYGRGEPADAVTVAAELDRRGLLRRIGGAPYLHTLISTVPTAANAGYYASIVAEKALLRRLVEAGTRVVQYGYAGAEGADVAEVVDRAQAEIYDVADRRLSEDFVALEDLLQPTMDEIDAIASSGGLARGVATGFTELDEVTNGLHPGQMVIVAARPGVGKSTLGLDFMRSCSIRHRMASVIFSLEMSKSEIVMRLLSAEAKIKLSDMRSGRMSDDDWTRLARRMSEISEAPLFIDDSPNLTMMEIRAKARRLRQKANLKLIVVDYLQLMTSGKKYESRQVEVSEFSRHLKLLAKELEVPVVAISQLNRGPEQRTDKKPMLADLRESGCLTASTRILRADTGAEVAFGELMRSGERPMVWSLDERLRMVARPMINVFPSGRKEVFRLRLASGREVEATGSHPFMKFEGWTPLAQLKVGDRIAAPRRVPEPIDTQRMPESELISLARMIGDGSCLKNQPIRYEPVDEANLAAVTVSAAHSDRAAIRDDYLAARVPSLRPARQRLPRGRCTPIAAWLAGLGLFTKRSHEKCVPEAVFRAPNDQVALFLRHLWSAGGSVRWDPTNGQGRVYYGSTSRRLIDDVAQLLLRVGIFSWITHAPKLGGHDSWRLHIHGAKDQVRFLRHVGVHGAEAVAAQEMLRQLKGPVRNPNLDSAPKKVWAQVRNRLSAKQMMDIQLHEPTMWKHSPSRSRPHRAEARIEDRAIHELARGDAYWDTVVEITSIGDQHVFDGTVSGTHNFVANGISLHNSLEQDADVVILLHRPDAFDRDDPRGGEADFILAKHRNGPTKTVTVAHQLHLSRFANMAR

[14] = target: Integrin alpha-4 (Homo sapiens, UniProt P13612); assay: allosteric modulators of alpha4 integrin VLA-4 – cell-based, LIBS antibody binding, flow cytometry, SAR follow-up (AID 488791); assay type: functional
Integrin alpha-4, sequence (P13612 whole entry): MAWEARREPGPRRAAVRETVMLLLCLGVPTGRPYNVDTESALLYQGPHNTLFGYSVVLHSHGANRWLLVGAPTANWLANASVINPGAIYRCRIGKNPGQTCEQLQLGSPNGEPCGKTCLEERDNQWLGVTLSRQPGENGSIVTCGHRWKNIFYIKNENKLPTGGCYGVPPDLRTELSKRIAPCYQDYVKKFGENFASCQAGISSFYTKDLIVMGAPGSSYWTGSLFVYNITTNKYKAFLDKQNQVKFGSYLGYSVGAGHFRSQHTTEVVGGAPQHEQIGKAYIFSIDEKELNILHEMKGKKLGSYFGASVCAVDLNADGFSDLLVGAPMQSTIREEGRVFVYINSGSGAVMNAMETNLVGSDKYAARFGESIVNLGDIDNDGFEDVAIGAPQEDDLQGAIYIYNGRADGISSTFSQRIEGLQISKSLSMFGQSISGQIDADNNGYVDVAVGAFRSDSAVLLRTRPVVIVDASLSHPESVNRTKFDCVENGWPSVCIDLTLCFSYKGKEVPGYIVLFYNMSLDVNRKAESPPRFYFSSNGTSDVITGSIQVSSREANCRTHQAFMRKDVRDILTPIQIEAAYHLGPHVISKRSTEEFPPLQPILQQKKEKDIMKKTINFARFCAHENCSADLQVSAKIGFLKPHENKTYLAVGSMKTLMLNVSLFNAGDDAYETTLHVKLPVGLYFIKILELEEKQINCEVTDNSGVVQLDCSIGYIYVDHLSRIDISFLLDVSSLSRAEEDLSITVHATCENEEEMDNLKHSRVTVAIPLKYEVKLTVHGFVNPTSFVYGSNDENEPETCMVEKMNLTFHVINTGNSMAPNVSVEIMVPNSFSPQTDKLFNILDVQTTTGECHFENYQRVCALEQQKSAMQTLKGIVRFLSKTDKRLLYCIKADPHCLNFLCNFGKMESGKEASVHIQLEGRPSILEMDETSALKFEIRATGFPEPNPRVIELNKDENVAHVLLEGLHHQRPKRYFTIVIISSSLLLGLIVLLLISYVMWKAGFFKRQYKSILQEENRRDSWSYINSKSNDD

[15] = target: Beta-galactosidase (Escherichia coli, UniProt Q8VNN2); assay type: functional
Beta-galactosidase, sequence (Q8VNN2 whole entry): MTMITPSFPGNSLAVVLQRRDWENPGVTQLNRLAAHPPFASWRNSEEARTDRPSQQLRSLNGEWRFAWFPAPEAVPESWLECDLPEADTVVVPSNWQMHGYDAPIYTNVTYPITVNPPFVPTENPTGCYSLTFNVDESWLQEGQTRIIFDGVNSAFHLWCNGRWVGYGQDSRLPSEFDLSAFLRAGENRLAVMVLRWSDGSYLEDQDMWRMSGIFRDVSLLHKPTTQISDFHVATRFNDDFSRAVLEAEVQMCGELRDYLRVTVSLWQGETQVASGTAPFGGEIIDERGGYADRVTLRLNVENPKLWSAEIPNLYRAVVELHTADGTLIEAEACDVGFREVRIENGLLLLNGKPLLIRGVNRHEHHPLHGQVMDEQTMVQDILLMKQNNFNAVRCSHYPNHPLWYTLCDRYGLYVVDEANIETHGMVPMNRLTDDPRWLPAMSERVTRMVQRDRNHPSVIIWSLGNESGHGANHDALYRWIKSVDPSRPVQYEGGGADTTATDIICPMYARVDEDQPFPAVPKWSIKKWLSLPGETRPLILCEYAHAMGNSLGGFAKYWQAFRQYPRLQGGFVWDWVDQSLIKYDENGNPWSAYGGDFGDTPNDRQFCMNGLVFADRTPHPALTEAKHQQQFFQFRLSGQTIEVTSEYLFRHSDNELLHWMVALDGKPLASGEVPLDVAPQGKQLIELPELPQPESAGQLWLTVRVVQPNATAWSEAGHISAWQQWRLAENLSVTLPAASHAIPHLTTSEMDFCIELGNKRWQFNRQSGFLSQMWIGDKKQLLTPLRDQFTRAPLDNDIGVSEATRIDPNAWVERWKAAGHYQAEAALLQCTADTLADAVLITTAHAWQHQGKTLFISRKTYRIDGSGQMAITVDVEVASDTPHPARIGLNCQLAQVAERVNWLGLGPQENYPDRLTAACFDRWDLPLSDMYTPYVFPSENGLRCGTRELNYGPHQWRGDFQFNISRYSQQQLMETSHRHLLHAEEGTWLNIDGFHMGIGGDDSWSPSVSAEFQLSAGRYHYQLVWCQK

[16] = target: T6, Kappa-type opioid receptor (Homo sapiens, UniProt P41145); assay type: functional
T6 sequence (P41145 whole entry): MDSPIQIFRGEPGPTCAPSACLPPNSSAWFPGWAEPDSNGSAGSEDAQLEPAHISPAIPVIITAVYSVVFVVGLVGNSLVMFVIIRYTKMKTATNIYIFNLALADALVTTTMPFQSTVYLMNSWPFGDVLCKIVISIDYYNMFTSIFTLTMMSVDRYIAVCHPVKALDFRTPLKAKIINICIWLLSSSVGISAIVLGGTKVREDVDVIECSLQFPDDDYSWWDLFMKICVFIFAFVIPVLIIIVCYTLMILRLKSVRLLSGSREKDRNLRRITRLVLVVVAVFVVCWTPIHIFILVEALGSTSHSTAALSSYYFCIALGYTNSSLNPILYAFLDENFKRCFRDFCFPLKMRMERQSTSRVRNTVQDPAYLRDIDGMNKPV

[17] = target: T6, Kappa-type opioid receptor; assay type: functional; remark: listed apart in the source
[18] = target: Mu-type opioid receptor (Homo sapiens, UniProt P35372); assay: HTS Image-Based Screen for Agonists of the MOR Receptor. [Related pubchem assays (depositor defined):AID1777, AID1785, AID1786, AID2133]; assay type: functional;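 further: imaging of beta-arrestin GFP recruitment into spots after receptor activation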
Mu-type opioid receptor, sequence (P35372 whole entry): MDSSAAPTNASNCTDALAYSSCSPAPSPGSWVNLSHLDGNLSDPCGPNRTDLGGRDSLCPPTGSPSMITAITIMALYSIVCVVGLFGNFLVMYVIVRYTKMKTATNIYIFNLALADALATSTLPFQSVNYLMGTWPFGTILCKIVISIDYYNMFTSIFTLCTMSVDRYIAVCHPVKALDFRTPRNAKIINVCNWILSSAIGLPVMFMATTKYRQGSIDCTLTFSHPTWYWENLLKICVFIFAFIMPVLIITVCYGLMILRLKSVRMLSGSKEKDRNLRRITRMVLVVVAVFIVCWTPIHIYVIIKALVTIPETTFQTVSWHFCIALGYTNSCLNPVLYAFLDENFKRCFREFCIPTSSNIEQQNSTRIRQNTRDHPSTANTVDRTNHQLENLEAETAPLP

[19] = target: T7, Delta-type opioid receptor (Homo sapiens, UniProt P41143); assay: HTS Image-Based Screen for Agonists of the DOR Receptor. [Related pubchem assays (depositor defined):AID1777, AID1786, AID2133]; assay type: functional
T7 sequence (P41143 whole entry): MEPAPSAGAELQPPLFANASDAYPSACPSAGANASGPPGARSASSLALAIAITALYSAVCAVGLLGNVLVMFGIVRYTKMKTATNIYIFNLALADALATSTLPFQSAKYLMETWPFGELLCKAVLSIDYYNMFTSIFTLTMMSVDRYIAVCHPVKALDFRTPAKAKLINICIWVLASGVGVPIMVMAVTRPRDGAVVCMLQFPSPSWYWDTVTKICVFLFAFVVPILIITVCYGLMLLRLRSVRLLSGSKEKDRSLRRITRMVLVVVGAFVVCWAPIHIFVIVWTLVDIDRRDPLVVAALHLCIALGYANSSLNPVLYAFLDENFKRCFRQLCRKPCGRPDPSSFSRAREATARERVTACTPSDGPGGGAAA

[20] = target: T7, Delta-type opioid receptor; assay: HTS Image-Based Screen for Antagonists of the DOR Receptor. [Related pubchem assays (depositor defined):AID1777, AID1785, AID1786, AID2133]; assay type: functional

CCN(CC)CCOC(=O)c1ccc(-n2sc3ccccc3c2=O)cc1
IC50 [1]: 24.1 µM (active) | IC50 [2]: 26.9 µM (active) | IC50 [3]: 755 nM (active)

CCC(CC)CN1CCC[C@H](NC(=O)COc2ccc(F)c(Cl)c2)C1
EC50 [4]: 10 µM (active)

CC(NC(=O)/C(C#N)=C/c1ccc(Cl)c([N+](=O)[O-])c1)c1ccccc1 (stereo not given)
AC50 [5]: 2.44 µM (active) | EC50 [6]: 5.2 µM (active) | IC50 [7]: 8.95 µM (active) | IC50 [8]: 2.53 µM (active) | EC50 [9]: 17.8 µM (active) | AC50 [10]: 18.2 µM (active) | EC50 [11]: 13.5 µM (active) | AC50 [12]: 8.59 µM (active) | AC50 [13]: 4.02 µM (active) | EC50 [14]: 2.42 µM (active)

COC(=O)c1ccc(C)c(-n2c(=O)n(Cc3ccccc3)c(=O)c3[nH]cnc32)c1
EC50 [15]: 11.5 µM (active) | IC50 [16]: 6.39 µM (active) | IC50 [17]: > 32 µM | EC50 [18]: > 32 µM (inactive) | EC50 [19]: > 32 µM (inactive) | IC50 [20]: > 32 µM (inactive)
